Test results: patent US20060160895A1, “Anti-cancer agents” (priority 2004, published 2006)

Legend:
Format in all cases: cell-based, human
lung carcinoma (A549) = assay: in vitro MTT proliferation assay, A549 cells; details: 48 hrs; for inhibition of cancer cell line A549: 0.3-100 μg/ml, absorbance at 492 nm; for IC50 values for A549: calculated with XLfit
Procedure: (§1) An in vitro assay was conducted to evaluate the efficacy of LuA, LuB, and LuE in inhibiting proliferation of cancer cells.
(§2) Four human tumor cell lines, i.e., gastric adenocarcinoma (AGS, BGC-823), lung carcinoma (A549), and lung adenocarcinoma (SPC-A-1), were purchased from the Cell Bank of Shanghai Institute of Cell Biology, Chinese Academy of Sciences, and cultured in Iscove's Modified Dulbecco's Medium (IMDM) containing 10% fetal bovine serum (FBS) in an incubator at 37° C. under 5% CO2. Cells of 70˜80% confluence were trypsinized, resuspended in IMDM medium containing 10% FBS at 1×10^5 cells/ml, and seeded in 96-well plates (100 μl in each well). The plates were incubated at 37° C. under 5% CO2 overnight.
(§3) A DMSO solution containing LuA, LuB, or LuE was added to each “treatment” well. Efficacy of LuA, LuB, and LuE at six concentrations, 100, 30, 10, 3, 1, and 0.3 μg/ml, was studied. Wells, to each of which a DMSO solution (containing no LuA, LuB, or LuE) was added, were used as “control;” and wells, to each of which no LuA, LuB, LuE, or DMSO was added, were used as “background.” The plates were then incubated at 37° C. under 5% CO2 for 48 hrs.
(§4) 10 μl of 3-(4,5-dimethyl-thiazol-2-yl)-2,5-diphenyl tetrazolium bromide in phosphate buffered saline (PBS), 5 mg/ml, was added to all wells except the background wells. After incubation for 3-4 hrs, the cells were collected by spinning at 1000 rpm for 15 minutes, followed by removal of the supernatants by vacuum. The cells thus collected in each well, after wash with 150 μl of PBS, were placed in 150 μl of DMSO.
(§5) The plates were then placed on a shaker at 150 rpm for 15 minutes to dissolve the precipitate in each well. Absorbance was measured at 492 nm using a microplate reader.
(§6) Inhibition ratios for cells treated with LuA, LuB, and LuE, respectively, were calculated according to the following equation: [formula]
(§7) A software program, XLfit (ID Business Solutions), was used to calculate the concentrations of LuA, LuB, and LuE required to reach 10, 20, . . . 90% inhibition (i.e., IC10, IC20, . . . IC90) for each tested tumor cell line.

[1] = tested on: lung adenocarcinoma (SPC-A-1); assay: in vitro MTT proliferation assay, SPC-A-1 cells; details: 48 hrs, 0.3-100 μg/ml, absorbance at 492 nm
Procedure: as §1, §2, §3, §4, §5, §6, §7

[2] = tested on: gastric adenocarcinoma (BGC-823); assay: in vitro MTT proliferation assay, BGC-823 cells; details: 48 hrs; for inhibition of cancer cell line BGC-823: 0.3-100 μg/ml, absorbance at 492 nm; for IC50 values for BGC-823: calculated with XLfit
Procedure: as §1, §2, §3, §4, §5, §6, §7

[3] = tested on: gastric adenocarcinoma (AGS); assay: in vitro MTT proliferation assay, AGS cells; details: 48 hrs; for inhibition of cancer cell line AGS: 0.3-100 μg/ml, absorbance at 492 nm; for IC50 values for AGS: calculated with XLfit
Procedure: as §1, §2, §3, §4, §5, §6, §7

| Compound | inhibition of cancer cell line A549 (lung carcinoma (A549)) | inhibition of cancer cell line SPC-A-1 [1] | inhibition of cancer cell line BGC-823 [2] | inhibition of cancer cell line AGS [3] | IC50 values for A549 (lung carcinoma (A549)) | IC50 values for BGC-823 [2] | IC50 values for AGS [3] |
| --- | --- | --- | --- | --- | --- | --- | --- |
| C=C1C(=O)[C@]23C[C@H]1C[C@@H](O)[C@H]2[C@]1(C)C[C@H](OC(C)=O)[C@H](OC(C)=O)C(C)(C)[C@H]1[C@@H](OC(C)=O)[C@@H]3O [LuE, Lushanrubescensin E] | effectively inhibited | effectively inhibited | effectively inhibited | effectively inhibited | – | – | – |
| C=C1C(=O)[C@]23C[C@H]1C[C@H](O)[C@H]2[C@]1(C)C[C@H](OC(C)=O)[C@H](OC(C)=O)C(C)(C)[C@H]1[C@@H](OC(C)=O)[C@@H]3O [LuB, Lushanrubescensin B] | effectively inhibited | effectively inhibited | effectively inhibited | effectively inhibited | particularly low | particularly low | particularly low |
| C=C1C(=O)[C@]23C[C@H]1C[C@H](OC(C)=O)[C@H]2[C@]1(C)C[C@H](OC(C)=O)[C@H](OC(C)=O)C(C)(C)[C@H]1[C@@H](OC(C)=O)[C@@H]3O [LuA, Lushanrubescensin A] | effectively inhibited | effectively inhibited | effectively inhibited | effectively inhibited | particularly low | particularly low | particularly low |
